Experimental data as given in patent publication US20230123148A1, “TARGETING QUORUM-SENSING PEPTIDES FOR DIAGNOSIS, TREATMENT AND/OR PREVENTION OF COLORECTAL CANCER METASTASIS” (UNIVERSITEIT GENT, priority 2020, published 2023).

How the values were obtained:
CXCR4 receptor = target: T1, CXCR4 receptor (Homo sapiens, UniProt P61073); test: Antagonism of the E-cadherin reducing effect of QSP76 (Western blot, HCT-8 cells); format: cell-based; settings: for relative E-cadherin expression: PBS = 100%
T1 construct: endogenous in cells; host or cells: luciferase transfected HCT-8/E11 cells
T1 sequence (P61073 whole entry): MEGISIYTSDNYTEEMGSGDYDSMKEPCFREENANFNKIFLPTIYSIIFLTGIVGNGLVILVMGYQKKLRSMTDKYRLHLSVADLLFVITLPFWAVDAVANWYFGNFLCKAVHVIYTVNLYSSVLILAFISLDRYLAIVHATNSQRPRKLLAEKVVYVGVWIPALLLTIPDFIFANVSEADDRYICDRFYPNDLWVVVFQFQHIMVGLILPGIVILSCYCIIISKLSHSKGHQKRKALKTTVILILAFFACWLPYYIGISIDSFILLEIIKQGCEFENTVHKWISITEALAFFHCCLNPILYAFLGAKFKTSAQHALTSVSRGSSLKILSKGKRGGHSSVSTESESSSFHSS
Method: Western Blot analyses. 1×10^6 luciferase transfected HCT-8/E11 cells were seeded in each well of a 6-well plate. […] After 24 hours, cells were detached from the surface and lysed with Thermo Scientific RIPA-buffer. The protein concentration was then determined using the modified Lowry protein assay kit, according to the manufacturer's instructions. All samples were diluted to the same concentration (i.e. 4 μg/μL) using water and diluted 1:1 using 2× Laemmli buffer. Next, the samples were boiled for 5 min at 95° C. for denaturation, after which centrifugation for 5 min at 16,000 g was performed; the supernatant was then used for Western blot analyses. Therefore, proteins (20 μg) were separated using a Bio-Rad Any kD gel (SDS-PAGE) and transferred to a PVDF membrane. Before the membranes were incubated with antibodies, non-specific binding sites were blocked using 5% skimmed milk solution (1 hour). Western blot was performed using an anti-E-cadherin (1/1000) antibody and incubated overnight at 4° C. Signal intensity was normalized against the total protein content in the lanes. Anti-rabbit-HRP antibody was used for detection (1/2000) (1 hour). Finally, the substrate (5 min) was added and the results were analyzed using the Bio-Rad ChemiDoc EZ imager and Image Lab software. TBS buffer with 0.05% Tween 20 was used for washing between the different steps.

[1] = system: luciferase transfected HCT-8/E11 cells; test: Orthotopic colorectal cancer mouse model; format: in vivo, female athymic nude mice (Swiss nu/nu)
Method: Orthotopic colorectal cancer mouse model. All in vivo experiments were performed according to the Ethical Committee principles of laboratory animal welfare and approved by our institute (Ghent University, Faculty of Medicine and Health Sciences, approval number ECD 17-90). Mice were maintained in a sterile environment with light, humidity and temperature control (light-dark cycle with light from 7:00 h to 17:00 h, temperature 21-25° C. and humidity 45-65%). Before the experiment, mice were allowed to acclimatize for a minimum of seven days.
Six-weeks old female athymic nude mice (Swiss nu/nu) were anesthetized and a small midline laparotomy executed to localize the caecum. The caecum was then gently exteriorized and luciferase transfected HCT-8/E11 cells (1×10^6 cells) in a volume of 20 μL serum-free DMEM medium with matrigel (1:1) injected into the caecal wall. Cells were previously treated with EntF* (10 nM, 100 nM or 1 μM), Phr0662 (100 nM) or with the vehicle (PBS) or positive control (Transforming Growth Factor α (TGFα), 0.1 μg mL^−1) solution for 5 days before they were implanted in the mice. The caecum was then carefully returned to the abdominal cavity and the laparotomy closed in two layers by sutures of PDS 6/0. Starting from the day after tumour cell injection, mice were daily treated by i.p. injection with vehicle (PBS, n=15), EntF* (10 nmol kg^−1, n=12; 100 nmol kg^−1, n=18; 1 μmol kg^−1, n=8), Phr0662 (100 nmol kg^−1, n=5) or positive control (Epidermal Growth Factor (EGF), 100 μg kg^−1, n=18) for 6 weeks. Once a week, mice were investigated for tumour growth and metastases using bioluminescent imaging with the IVIS Lumina II (Perkin Elmer, Belgium) after i.p. injection with 200 μL luciferin (150 mg kg^−1). After 6 weeks, mice were euthanized using cervical dislocation, followed by macroscopic evaluation of the liver, diaphragm, lungs, caecum, duodenum and peritoneum for the presence of tumour nodules. Liver and lung tissues were then fixed in formalin during 24 h and stored in 70% ethanol for max. 3 days before embedding in paraffin. Afterwards, a haematoxylin & eosin (H&E) staining was performed on 8 μm sections and 3 sections were visualized per mouse using microscopy. The slides of all tumour-bearing mice were scored by two blinded, independent investigators using a scoring system. In the case of a difference in scoring, the slide was scored again by a third blinded, independent investigator for consensus.
Statistical analyses. The Kolmogorov-Smirnov test was used to assess if data obtained were normally distributed. For sample sizes of n<10, non-parametric tests (Mann-Whitney U test) were performed directly. Slope comparison was based on linear regression analysis. Bootstrapped medians and Hedges G-values were used to calculate the effect size.

HCT-8 CRC cells = settings: cited from earlier work
[2] = after 6 weeks daily i.p. treatment

Substance: ANLVECVFSLFKKCN (QSP76S1A) [EntF* antagonist]
- antagonistic effect on the in vitro pro-metastatic (E-cadherin reducing) effect of QSP76 (CXCR4 receptor; HCT-8 cells): reduces
- relative E-cadherin expression (CXCR4 receptor; mixture of antagonist with 5 μM EntF* (QSP76), HCT-8 cells): 91.8%
- Cohen's d effect size of normalisation in E-cadherin expression (CXCR4 receptor; mixture with QSP76 versus QSP76 alone): 0.77

Substance: Epidermal Growth Factor [EGF]
- bioluminescence, Bootstrapped median difference (effect size, increase vs PBS) [1, 2]: 316%
- bioluminescence, Hedges' g value (vs PBS) [1, 2]: 0.7
- bioluminescence, Median [1, 2]: 630
- increase in the number of nodules on the caecum compared to PBS ([1]; after 6 weeks treatment): 4.5 fold
- number of nodules on the caecum, Hedges' g value (vs PBS) ([1]; after 6 weeks treatment): 0.8
- number of nodules on the caecum, Median ([1]; after 6 weeks treatment): 14
- number of nodules on the caecum, Bootstrapped median difference ([1]; after 6 weeks treatment, vs PBS): 9
- tumour growth (luciferase activity, bioluminescent imaging) compared to vehicle ([1]; weekly imaging during 6 weeks, linear regression slope comparison): significant increase of tumour growth

Substance: ERNNT [Phr0662]
- promotion of angiogenesis and/or tumour cell invasion in vitro (HCT-8 CRC cells): promote in vitro cell invasion
- in vivo metastasis-promoting effect ([1]; daily i.p. for 6 weeks): no in vivo metastasis-promoting effects

Substance: SNLVECVFSLFKKCN (SNLVECVFSLKKCN; EntF metabolite) [EntF*]
- relative E-cadherin expression (CXCR4 receptor; QSP76 alone, HCT-8 cells): 66.0%
